# Results as given in article PMC4109680, “Identification and Preclinical Pharmacology of the γ-Secretase Modulator BMS-869780” (International Journal of Alzheimer's Disease, 2014).
# Assays:
# Aβ1-42 (H4-APPsw) = assay: Aβ1-42 time-resolved fluorescence immunoassay in H4-APPsw cell cultures; assay type: cell-based, human; details: H4-APPsw cultures treated overnight
# Protocol: H4-APPsw cell cultures were maintained on Dulbecco's modified Eagle's medium (DMEM) supplemented with L-glutamine (2 mM), fetal bovine serum (10%), and G418 (100 μg/mL). […] Aβ1-42 and Aβ1-40 assays, and Notch inhibition assays, were carried out as described previously. Mouse embryonic fibroblasts deficient in PS1 and PS2 (MEF dKO) were passaged twice per week in DMEM/F-12 medium, consisting of a 1 : 1 mixture of DMEM and F-12 nutrient mixture supplemented with 10% fetal bovine serum, penicillin, and streptomycin. For expression of human presenilin-1 in MEF dKO cells, the full length human presenilin-1 cDNA open reading frame was cloned between the BamHI and XhoI sites of the vector pcDNA5/FRT (Invitrogen), placing presenilin-1 expression under the control of the CMV promoter. The M146V mutated allele was introduced into the presenilin-1 expression construct by polymerase chain reaction using the oligonucleotide primers 5′-[…]-3′ and 5′-[…]-3 (QuikChange kit, Invitrogen). MEF dKO cultures were cotransfected with DNA constructs expressing APP-CTF, encoding the C-terminal 99 amino acids of APP [61] and either the human presenilin-1 or presenilin-1 M146V allele. Transfected cultures were incubated overnight at 37°C in 5% CO2 atmosphere and then harvested, resuspended in DMEM/F-12 medium, dispensed into 96-well culture plates, and incubated for 6 hours at 37°C in 5% CO2 atmosphere. Culture medium was then replaced with Ultraculture serum free medium (Lonza, Rockland, ME) with or without compounds at a range of concentrations and incubated overnight.
# IC50 determinations for Aβ1-42 and Aβ1-40 in H4-APPsw cultures in 384-well format were determined using homogeneous time-resolved fluorescence immunoassays as previously described. The principle of these assays is illustrated in Figures 1(c) and 1(d). In other experiments using H4-APPsw cultures, Aβ was quantified by ELISA; for Aβ1-42 the combination of monoclonal antibodies was 26D6 and 565-HRP; for Aβ1-40 it was TSD and 26D6-HRP, and for Aβ1-x it was 4G8 and 26D6-HRP. In some experiments a novel 4-plex Aβ electrochemiluminescence immunoassay was used (Mesoscale Discovery catalog number N45ZA-1). Briefly, the 4-plex was carried out in 96-well format, with 4 separate spots of capture antibodies in each well. […] For Aβ in transiently transfected PS1/PS2 dKO fibroblasts, Aβ1-42 was quantified using an ELISA kit (WACO), and Aβ1-40 was quantified by ELISA as described above for H4-APPsw cultures. […] For the rat and mouse experiments illustrated in Figures 7 and 8, brain samples were prepared by solid phase extraction, and endogenous rat brain Aβ1-42 and Aβ1-40 were quantified by ELISA as previously described for wild type mice. […]
# mNotch1Δ1865 = assay: Western blot of NICD and mNotch1Δ1865 in transfected HeLa cell cultures; assay type: cell-based
# Protocol: Inhibition of Notch signaling in cultured cells using a mouse-derived truncated Notch1 transgene, mNotch-ΔE [67], has been described in detail previously. Western blots for mNotchΔ1865 and NICD using 9E10 anti-c-myc monoclonal were carried out as previously described.
# The effect of BMS-869780 on Notch processing was evaluated using transcriptional reporter assays and western blotting of NICD levels. HeLa cell cultures were transfected with mNotch1ΔE and CBF1-luciferase reporter constructs and treated with BMS-869780. In most replicates of this experiment, inhibition of luciferase reporter occurred with IC50 > 10 μM. […] To further evaluate the effect of BMS-869780 on Notch processing, western blots of cell cultures were carried out using mNotch1Δ1865, a truncated version of mNotch1ΔE that facilitates separation of NICD product from mNotch1 substrate on western blots. HeLa cell cultures were transfected with mNotch1Δ1865 and treated overnight with compounds before western blotting. […] Furthermore, the GSIs caused an increased level of mNotch1Δ1865 substrate, most likely due to inhibition of its turnover by γ-secretase, as previously noted by Blat et al..
# (b) HeLa cell cultures were transfected with mNotchΔ1865, treated with compounds overnight, and cell extracts were evaluated by western blot using anti-c-myc-HRP conjugate. Lanes 1 and 9: DMSO (0.1%) vehicle. Lane 2: BMS-299897 at 1 μM. Lane 3: BMS-433796 at 0.3 μM. Lanes 4–8: BMS-869780 at 0.1, 0.3, 1, 3, and 10 μM, respectively.
SMILES,IC50 (Aβ1-42 (H4-APPsw); Homo sapiens) [nM],"NICD levels (mNotch1Δ1865; BMS-299897 at 1 μM, BMS-433796 at 0.3 μM)",IC50 (Aβ1-42 (H4-APPsw)) [nM],mNotch1Δ1865 substrate levels (mNotch1Δ1865; 10 μM),"cell observation (mNotch1Δ1865; 10 μM, HeLa cultures)",NICD levels (mNotch1Δ1865; concentrations up to 3 μM)
"C[C@H](c1ccc(F)cc1CCCC(=O)O)N(c1cc(F)ccc1F)S(=O)(=O)c1ccc(Cl)cc1 [BMS-299897, reference compound]",0.47,greatly reduced NICD,–,–,–,–
COc1cc(Nc2nc3n(n2)CCCC[C@H]3c2ccc(F)cc2)ccc1-n1cnc(Cl)c1 [BMS-869780],5.6,–,5.1,did not increase mNotch1Δ1865 levels,detached and dead cells,no effect on NICD levels
